Measured values: article PMC8672735, “Computational and experimental investigation of the effect of cation structure on the solubility of anionic flow battery active-materials” (Chemical Science, 2021)
Read-outs that look alike come from different tables or passages of the source.

Assays:
[1] = Experimental solubility of [Nxxxx]y[VBH] active materials (maximum concentration by UV-Vis spectroscopy); assay type: physicochemical; conditions: anhydrous, organic solvent or mixture, read-out: Experimental solubility (maximum concentration of VBH in the electrolyte)
Excerpt: To investigate the solubilities of VBH-based active materials, we synthesized the alkylammonium [VBH] compounds in their reduced (+4) and oxidized (+5) states ([Nxxxx]2[V(+4)BH] and [Nxxxx][V(+5)BH], where x = 1 (methyl), 2 (ethyl), 3 (n-propyl), 4 (n-butyl)) and measured their solubilities in tetrahydrofuran (THF), acetonitrile (MeCN), dimethyl sulfoxide (DMSO), and propylene carbonate (PC). […] This led us to explicitly explore the interplay between competing trends in solvation energy and lattice enthalpy, which was implied by our previous work,[5] using a combined computational and synthetic strategy.
UV-Vis spectra were collected using the Evolution 220 UV-visible spectrophotometer with a quartz cuvette of 1 cm path length. The molar extinction coefficients for oxidized and reduced species in all solvents except for DMSO were used as determined in our previous study.[5] Molar extinction coefficients for oxidized species in DMSO were determined from a calibration curve. Infrared spectra were collected on a Thermo Scientific Nicolet iS5 equipped with iD7ATR module and a diamond crystal. ^1H- and ^13C-NMRs were performed on Bruker AVANCE III HD 400 MHz High-Performance Digital NMR spectrometer operating at 400 MHz for ^1H NMR and 101 MHz for ^13C NMR. Data acquisition was performed on IconNMR 5.0.3, and spectra were processed in TopSpin 3.5 and Mnova. High-Resolution Mass Spectrometry (HRMS) was performed on a Waters ACQUITY UPLC Xevo QTOF high resolution mass spectrometer using electrospray ionization. X-ray crystallographic experiments were performed on a Bruker D8 Venture X-instrument, using Mo Kα radiation at 200 K. Data were corrected for absorption using SADABS. The structures were solved by direct methods. All non-hydrogen atoms were refined anisotropically by full matrix least-squares on F^2 and all hydrogen atoms except those on water were placed in calculated positions with appropriate riding parameters. Further refinement and molecular graphics were obtained using Bruker Suite of structural programs,[55] OLEX2,[56] and Mercury.[57]
Hydroxylamine hydrochloride (Alfa Aesar), sodium hydroxide (Acros organics), chloroacetic acid (BTC), zinc acetate dihydrate (Acros Organics), calcium chloride (VWR), tetramethylammonium fluoride tetrahydrate (Matrix Scientific), tetraethylammonium fluoride (BTC), triethylamine (Acros Organics), n-butylbromide (Alfa Aesar), n-propylbromide (BTC), ferrocenium hexafluorophosphate (Sigma Aldrich), and vanadyl (iv) acetylacetonate (BTC) were purchased from commercial sources and used as received. Information on the characterization of new materials and those that were reported previously, and were used for solubility studies herein, are provided below. Solvent used in solubility measurement were of anhydrous grade and purchased from Sigma Aldrich.

[2] = in DMSO and MeCN at 0.01 M, 0.05 M, 0.1 M, 0.2 M, and 0.5 M; 25 °C
Description: The viscosity measurements were collected using the Cannon Instruments Semi-Micro Viscometer. Concentrations of 0.01 M– 0.55 M were used when collecting the viscosity data at ambient temperature (25 °C). The U-tube style viscometer allowed for the collection of kinematic viscosity in centiStokes (cSt) which was then converted to dynamic viscosity in centiPoise (cP) using the electrolyte density.

[3] = acetonitrile (MeCN), MeCN (ϵ = 37), +4 state, [Nxxxx]2[VBH]
[4] = acetonitrile (MeCN), MeCN (ϵ = 37), +5 state, [Nxxxx][VBH]
[5] = dimethyl sulfoxide (DMSO), DMSO (ϵ = 47), +4 state, [Nxxxx]2[VBH]
[6] = dimethyl sulfoxide (DMSO), DMSO (ϵ = 47), +5 state, [Nxxxx][VBH]
[7] = propylene carbonate (PC), PC (ϵ = 66), +4 state, [Nxxxx]2[VBH]
[8] = propylene carbonate (PC), PC (ϵ = 66), +5 state, [Nxxxx][VBH]

solubility [1, 3] [mM] | solubility [1, 4] [mM] | solubility [1, 5] [mM] | solubility [1, 6] [mM] | solubility [1, 7] [mM] | solubility [1, 8] [mM] | Compound | viscosity [2]
76 | 7 | 624 | 225 | 377 | 33 | CCCC[N+](C)(C)C [compound 1114] | 
 |  |  |  |  |  | CCCC[N+](CCCC)(CCCC)CCCC [[N4444]2[VBH]] | generally increases with solution concentration
24 | 8 | 246 | 252 | 108 | 40 | CCC[N+](C)(C)C [compound 1113] | 

Compound | solubility [1, 3] [mM] | solubility [1, 4] [mM] | solubility [1, 5] [mM] | solubility [1, 6] [mM] | solubility [1, 7] [mM] | solubility [1, 8] [mM] | viscosity [2]
CC[N+](CC)(CC)CC [compound 2222] |  | 64 |  | 804 |  | 215 | 
